Assay results published in US5807825A, “Platelet aggregation inhibitors” (COR Therapeutics, Inc., priority 1995, dated 1998).
Where a SMILES comes first, the peptide text is derived from it. Bridges are numbered along the chain shown (N, C = ends).

Experiments:
[1] = system: thrombi formation in dog coronary arteries; test: Folts model of thrombosis, cyclic flow reductions (CFRs) in open chest dog coronary artery; type: in vivo
Method: A. Initiation of cyclic flow reductions (CFRs) in open chest dog. An occluder placed on the left anterior descending (LAD) coronary artery of a 20 kg dog, as previously described was performed.

M21 melanoma cells = test: attachment of 35S-methionine labelled M21 melanoma cells to vitronectrin-coated plates; type: cell-based; settings: FIGS. 31-34
Method: M21 melanoma cells, which express high levels of the vitronectrin receptor, were metabolically labelled with ^35 S-methionine, and then added to 24-well tissue culture plates coated with vitronectrin. An incubation period of 1 hr at 37° C. was allowed for cell attachment, and this was followed by a wash to remove non-adherent cells. After washing, the adherent cells were solubilized, and the supernatants placed in a liquid scintillation counter. The fraction of cells remaining adherent was calculated by dividing the cpm in the solubilized supernatants by the cpm in the total number of cells added to each well. The effects of purified snake venom peptides and synthetic cyclic peptides on cell adhesion was determined by including them with the M21 cells during the incubation period.
M21 melanoma cells were labelled with ^35 S-methionine, and then added to vitronectrin-coated plates in the presence of the indicated concentrations of purified snake venom peptides. Cell attachment was measured by solubilizing the cells remaining after an incubation and wash, as described in Section C, on page 40.

GP IIb-IIIa = molecular target: T1, GP IIb-IIIa (Homo sapiens, UniProt P05106+P08514); test: plate assay: binding of labeled ligand (fibrinogen, vWF) to immobilized purified GP IIb-IIIa; settings: plate assays, in words; FIGS. 2A-2C, 30A-30E
T1 construct: Purified platelet GP IIb-IIIa receptor was prepared as described by Fitzgerald, L. A., et al; from tissue; host or cells: platelets
T1 sequence (P08514 32-887 limits assumed): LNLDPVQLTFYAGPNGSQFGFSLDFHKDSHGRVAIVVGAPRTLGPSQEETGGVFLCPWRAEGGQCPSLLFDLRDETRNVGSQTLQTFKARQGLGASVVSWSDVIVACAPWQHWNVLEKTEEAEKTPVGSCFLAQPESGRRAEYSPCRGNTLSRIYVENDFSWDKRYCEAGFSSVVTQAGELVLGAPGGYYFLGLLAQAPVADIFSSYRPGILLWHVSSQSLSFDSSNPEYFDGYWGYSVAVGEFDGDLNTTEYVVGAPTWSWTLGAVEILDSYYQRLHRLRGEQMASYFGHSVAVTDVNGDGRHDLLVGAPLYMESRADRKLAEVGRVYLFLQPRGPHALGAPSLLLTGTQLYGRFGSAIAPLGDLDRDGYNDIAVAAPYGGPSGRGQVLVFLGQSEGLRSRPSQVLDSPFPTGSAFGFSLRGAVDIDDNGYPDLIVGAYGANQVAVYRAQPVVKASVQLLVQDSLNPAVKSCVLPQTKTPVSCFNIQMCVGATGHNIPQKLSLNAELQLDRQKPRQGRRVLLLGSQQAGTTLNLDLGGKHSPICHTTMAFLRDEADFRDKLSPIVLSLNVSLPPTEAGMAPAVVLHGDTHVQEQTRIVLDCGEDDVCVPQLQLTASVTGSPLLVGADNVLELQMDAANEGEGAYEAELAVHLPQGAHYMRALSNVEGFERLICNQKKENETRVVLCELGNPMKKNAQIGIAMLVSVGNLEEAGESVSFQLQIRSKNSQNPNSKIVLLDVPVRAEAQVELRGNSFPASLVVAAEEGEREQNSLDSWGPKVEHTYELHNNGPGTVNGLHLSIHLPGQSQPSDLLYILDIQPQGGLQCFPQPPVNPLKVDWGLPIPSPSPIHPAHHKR
T1 sequence (P08514 891-1039 partner limits assumed): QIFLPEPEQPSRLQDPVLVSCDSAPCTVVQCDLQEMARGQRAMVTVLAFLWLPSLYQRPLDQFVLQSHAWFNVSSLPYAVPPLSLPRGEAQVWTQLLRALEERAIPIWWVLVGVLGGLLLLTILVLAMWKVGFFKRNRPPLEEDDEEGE
T1 sequence (P05106 27-788): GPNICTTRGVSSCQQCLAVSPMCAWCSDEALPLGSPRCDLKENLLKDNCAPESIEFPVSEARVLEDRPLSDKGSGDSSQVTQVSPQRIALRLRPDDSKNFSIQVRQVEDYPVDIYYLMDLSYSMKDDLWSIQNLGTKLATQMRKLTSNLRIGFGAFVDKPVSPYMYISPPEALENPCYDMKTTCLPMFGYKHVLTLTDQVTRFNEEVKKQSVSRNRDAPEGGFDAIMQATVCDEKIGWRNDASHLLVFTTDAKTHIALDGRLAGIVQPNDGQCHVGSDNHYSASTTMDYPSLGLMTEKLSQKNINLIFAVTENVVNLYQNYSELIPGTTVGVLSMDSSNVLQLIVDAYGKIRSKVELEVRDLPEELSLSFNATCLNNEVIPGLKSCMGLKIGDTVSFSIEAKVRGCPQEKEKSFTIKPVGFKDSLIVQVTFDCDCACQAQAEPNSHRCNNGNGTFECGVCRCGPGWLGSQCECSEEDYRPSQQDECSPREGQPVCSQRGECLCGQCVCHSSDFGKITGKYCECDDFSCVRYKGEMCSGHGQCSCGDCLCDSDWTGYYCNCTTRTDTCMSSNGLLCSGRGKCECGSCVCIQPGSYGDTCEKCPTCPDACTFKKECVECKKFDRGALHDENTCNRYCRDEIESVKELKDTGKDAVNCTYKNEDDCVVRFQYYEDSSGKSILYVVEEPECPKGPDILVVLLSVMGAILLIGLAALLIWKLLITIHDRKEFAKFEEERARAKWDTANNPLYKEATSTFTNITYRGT
Method: In the assay, GP IIb-IIIa, prepared in purified form, for example as described by Fitzgerald, L. A., et al., Anal Biochem (1985) 151:169-177, incorporated herein by reference, is coated onto a solid support such as beads, test tubes, or microtiter plates. […] Fibrinogen is typically provided at a concentration of about 5-50 nM and the test material can, if desired, be added at a series of dilutions. Typical incubations are 2-4 hr at 35° C., the time and temperature being interdependent.
After incubation, the solution containing the fibrinogen and test material is removed and the level of binding of fibrinogen measured by quantitating bound fibrinogen to GP IIb-IIIa. Any suitable means of detection may be used, but it is convenient to employ labeled fibrinogen, for example using radioactive, fluorescent or biotinylated labels. Such methods are well known and need not be elaborated here.
In this case, percent inhibition may be calculated using the amount of Fg bound in the control as representing the basis, so that [formula] Other measures of inhibition effectiveness, such as IC50, may also be used.
Purified platelet GP IIb-IIIa receptor was prepared as described by Fitzgerald, L. A., et al., Anal Biochem (1985) 151:169-177. […] After purification, the receptors were stored in 0.1% Triton X-100 at 0.1-1.0 mg/ml. […]
The labeled ligands were added to the receptor-coated wells at final concentration of 10 nM (100 ul/well) and incubated for 3 h at 30° C. in the presence or absence of the test samples. After incubation, the wells are aspirated to dryness and bound ligand is quantitated.
For ^125 I-labeled ligands, the protein is solubilized with 250 ul SDS. For biotinylated ligands, the bound protein is detected by the addition of antibiotin antibody conjugated to alkaline phosphatase followed by addition of substrate (p-nitrophenyl phosphate), and determination of the optical density of each well at 405 nm. […]

fibronectin receptor = fibronectin receptor (Homo sapiens, UniProt P05556+P08648); settings: background art; cited from earlier work
fibronectin receptor, sequence (P08648 42-894 limits assumed): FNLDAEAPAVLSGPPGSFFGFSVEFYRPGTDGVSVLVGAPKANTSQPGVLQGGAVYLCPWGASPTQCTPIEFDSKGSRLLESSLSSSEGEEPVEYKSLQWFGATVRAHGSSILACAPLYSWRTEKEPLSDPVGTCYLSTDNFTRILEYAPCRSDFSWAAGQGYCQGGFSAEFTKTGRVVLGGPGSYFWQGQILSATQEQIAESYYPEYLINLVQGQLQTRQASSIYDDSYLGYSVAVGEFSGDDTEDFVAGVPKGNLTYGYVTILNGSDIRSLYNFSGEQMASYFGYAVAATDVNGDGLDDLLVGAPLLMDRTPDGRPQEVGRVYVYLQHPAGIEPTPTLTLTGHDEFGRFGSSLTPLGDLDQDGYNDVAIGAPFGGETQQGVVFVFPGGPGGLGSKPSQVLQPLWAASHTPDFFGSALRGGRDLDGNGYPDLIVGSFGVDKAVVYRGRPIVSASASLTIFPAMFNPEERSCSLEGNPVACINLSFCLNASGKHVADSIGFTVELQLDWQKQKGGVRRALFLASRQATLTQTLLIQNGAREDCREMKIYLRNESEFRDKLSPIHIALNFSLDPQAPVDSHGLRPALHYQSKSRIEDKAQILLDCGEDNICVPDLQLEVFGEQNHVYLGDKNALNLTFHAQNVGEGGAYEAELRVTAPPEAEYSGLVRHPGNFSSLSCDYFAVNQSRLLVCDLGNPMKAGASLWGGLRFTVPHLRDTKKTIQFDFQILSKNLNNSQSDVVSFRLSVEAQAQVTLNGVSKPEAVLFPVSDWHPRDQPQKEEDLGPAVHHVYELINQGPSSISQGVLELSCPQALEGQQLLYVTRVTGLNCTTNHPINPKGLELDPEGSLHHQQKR
fibronectin receptor, sequence (P08648 895-1049 partner limits assumed): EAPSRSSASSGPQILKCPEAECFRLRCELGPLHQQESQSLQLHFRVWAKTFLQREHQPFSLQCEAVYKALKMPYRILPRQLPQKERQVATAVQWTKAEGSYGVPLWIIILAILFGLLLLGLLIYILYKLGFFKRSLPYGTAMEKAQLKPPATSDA
fibronectin receptor, sequence (P05556 21-798): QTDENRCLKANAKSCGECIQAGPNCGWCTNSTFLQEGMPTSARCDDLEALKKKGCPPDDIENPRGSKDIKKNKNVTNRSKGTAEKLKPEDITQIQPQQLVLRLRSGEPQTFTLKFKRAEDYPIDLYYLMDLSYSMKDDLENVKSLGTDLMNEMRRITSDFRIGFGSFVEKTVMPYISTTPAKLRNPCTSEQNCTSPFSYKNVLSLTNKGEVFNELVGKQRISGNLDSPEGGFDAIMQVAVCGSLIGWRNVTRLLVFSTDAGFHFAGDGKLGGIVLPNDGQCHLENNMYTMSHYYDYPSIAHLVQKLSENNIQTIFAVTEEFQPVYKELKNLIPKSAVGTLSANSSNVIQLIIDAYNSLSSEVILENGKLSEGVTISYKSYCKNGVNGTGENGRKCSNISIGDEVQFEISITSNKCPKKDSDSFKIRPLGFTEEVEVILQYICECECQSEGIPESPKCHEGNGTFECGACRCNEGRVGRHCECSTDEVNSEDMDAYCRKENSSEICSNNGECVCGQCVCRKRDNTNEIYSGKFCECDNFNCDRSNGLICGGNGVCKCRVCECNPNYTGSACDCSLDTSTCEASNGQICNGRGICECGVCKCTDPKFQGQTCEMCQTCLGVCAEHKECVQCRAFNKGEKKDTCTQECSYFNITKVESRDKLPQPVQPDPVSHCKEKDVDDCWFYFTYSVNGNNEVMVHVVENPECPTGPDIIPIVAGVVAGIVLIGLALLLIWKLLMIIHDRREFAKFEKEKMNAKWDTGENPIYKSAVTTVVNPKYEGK

vitronectrin receptor [2] = molecular target: T2, vitronectrin receptor (Homo sapiens, UniProt P05106+P06756); settings: background art; compared with same peptide before cyclization; cited from earlier work
T2 construct: Vitronectrin receptor was prepared as described by Smith, J. W., J Biol Chem (1988) 263:18726-18731; from tissue
T2 sequence (P06756 31-889 limits assumed): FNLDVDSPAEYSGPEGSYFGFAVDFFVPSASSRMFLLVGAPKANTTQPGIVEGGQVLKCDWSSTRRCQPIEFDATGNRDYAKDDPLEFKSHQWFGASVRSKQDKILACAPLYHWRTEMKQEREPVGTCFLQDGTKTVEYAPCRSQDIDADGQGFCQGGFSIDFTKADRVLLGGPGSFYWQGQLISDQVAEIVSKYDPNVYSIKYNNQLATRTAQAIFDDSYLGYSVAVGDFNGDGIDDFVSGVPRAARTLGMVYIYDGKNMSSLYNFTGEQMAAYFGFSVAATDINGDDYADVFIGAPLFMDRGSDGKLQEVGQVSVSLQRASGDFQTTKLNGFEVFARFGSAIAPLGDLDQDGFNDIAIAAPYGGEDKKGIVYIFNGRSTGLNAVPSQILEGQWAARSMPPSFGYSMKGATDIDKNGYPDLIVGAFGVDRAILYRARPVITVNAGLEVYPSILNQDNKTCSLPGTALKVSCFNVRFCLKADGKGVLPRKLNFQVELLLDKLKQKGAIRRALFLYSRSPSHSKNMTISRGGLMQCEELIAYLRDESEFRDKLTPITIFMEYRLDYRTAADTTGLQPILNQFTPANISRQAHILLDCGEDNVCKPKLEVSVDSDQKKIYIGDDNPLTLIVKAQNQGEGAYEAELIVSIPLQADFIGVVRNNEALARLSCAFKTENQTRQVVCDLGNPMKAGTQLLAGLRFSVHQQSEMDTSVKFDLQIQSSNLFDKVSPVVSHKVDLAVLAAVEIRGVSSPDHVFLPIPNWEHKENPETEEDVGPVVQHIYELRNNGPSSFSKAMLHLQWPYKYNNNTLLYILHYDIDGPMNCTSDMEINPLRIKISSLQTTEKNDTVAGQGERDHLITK
T2 sequence (P06756 891-1048 partner limits assumed): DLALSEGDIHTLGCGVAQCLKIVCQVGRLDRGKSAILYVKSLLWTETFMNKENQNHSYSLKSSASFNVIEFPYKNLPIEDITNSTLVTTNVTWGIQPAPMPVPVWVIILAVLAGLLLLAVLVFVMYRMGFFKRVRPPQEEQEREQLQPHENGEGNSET
T2 sequence (P05106 27-788): as the sequence (P05106 27-788) above

vitronectrin receptor [3] = molecular target: T2, vitronectrin receptor; test: plate assay: binding of labeled ligand (vitronectrin, vWF) to immobilized vitronectrin receptor; settings: FIGS. 26-28

Row | Compound | effect on M21 cell adhesion/attachment to vitronectrin, in words (M21 melanoma cells) | specificity: inhibition of fibrinogen/GP IIb-IIIa binding compared with vitronectrin/vitronectrin receptor binding (GP IIb-IIIa) | further results
1 | C[C@H](NC(=O)[C@@H]1CSSC[C@H](NC(=O)CN)C(=O)NCC(=O)N[C@@H](CCCCN)C(=O)NCC(=O)N[C@@H](CC(=O)O)C(=O)N[C@@H](Cc2c[nH]c3ccccc23)C(=O)N2CCC[C@H]2C(=O)N1)C(N)=O [#3] | – | – | effect on cyclic flow reductions (CFRs) in LAD coronary artery ([1]; 10 mg into a peripheral vein, 20 kg open chest dog, FIG. 36): partial ablation of the CFRs; effect on cyclic flow reductions (CFRs) in LAD coronary artery ([1]; second infusion of 40 mg into a peripheral vein, FIG. 37): complete ablation of the CFRs
2 | C[C@H](NC(=O)[C@@H]1CSSC[C@H](NC(=O)CN)C(=O)NCC(=O)N[C@@H](CCCNC(=N)N)C(=O)NCC(=O)N[C@@H](CC(=O)O)C(=O)N[C@@H](Cc2c[nH]c3ccccc23)C(=O)N2CCC[C@H]2C(=O)N1)C(N)=O [reference compound] (H-GCGRGDWPCA-NH2; disulfide 2-9) | potent inhibitors of cell attachment | – | –
3 | C[C@H](NC(=O)[C@@H]1CSSC[C@H](NC(=O)CN)C(=O)NCC(=O)N[C@@H](CCCCN)C(=O)NCC(=O)N[C@@H](CC(=O)O)C(=O)N[C@@H](Cc2c[nH]c3ccccc23)C(=O)N2CCC[C@H]2C(=O)N1)C(N)=O [Analog #3, G-C-G-K-G-D-W-P-C-A-NH2] | ineffective up to 60 uM | – | –
4 | N=C(N)NCCC[C@H](N)C(=O)NCC(=O)N[C@@H](CC(=O)O)C(=O)N[C@@H](CO)C(=O)O [RGDS, reference compound] | potent inhibitors of cell attachment | – | –
5 | ECADGLCCDQCRFLKKGTVCRVAKGDWNDDTCTGQSC- D-C-P-R-N-G-L-Y-G (ECADGLCCDQCRFLKKGTVCRVAKGDWNDDTCTGQSCDCPRNGLYG) [Analog #1] | neither barbourin nor Peptide 1 (truncated barbourin) had a significant effect | – | –
6 | NCCCC[C@@H]1NC(=O)CNC(=O)[C@@H](N)CSSC[C@@H](C(N)=O)NC(=O)[C@@H]2CCCN2C(=O)[C@H](Cc2c[nH]c3ccccc23)NC(=O)[C@H](CC(=O)O)NC(=O)CNC1=O [#5] (H-CGKGDWPC-NH2; disulfide 1-8) | – | quite specific | –
7 | Gly-Pen-Gly-Arg-Gly-Asp-Ser-Pro-Cys-Ala (GRGDSPCA; N-terminal Gly-Pen; Pen-Cys disulfide cyclisation; printed: Gly-Arg-Gly-Asp-Ser-Pro-Cys-Ala) [cyclic peptide, disulfide bridge between Pen and Cys (Pierschbacher)] | – | – | inhibition of fibronectin binding, in words (fibronectin receptor): ineffective in inhibiting fibronectin binding; inhibition of vitronectrin binding, in words (vitronectrin receptor [2]): able to inhibit vitronectrin binding more strongly than the same peptide before cyclization
8 | C[C@H](NC(=O)[C@@H]1CSSC[C@H](NC(=O)CN)C(=O)N[C@@H](CCCCN)C(=O)NCC(=O)N[C@@H](CC(=O)O)C(=O)N[C@@H](Cc2c[nH]c3ccccc23)C(=O)N2CCC[C@H]2C(=O)N1)C(N)=O [#4] (H-GCKGDWPCA-NH2; disulfide 2-8) | – | highest differential | –
9 | C[C@H](NC(=O)[C@@H]1CSSC[C@H](NC(=O)CN)C(=O)N[C@@H](CCCCN)C(=O)NCC(=O)N[C@@H](CC(=O)O)C(=O)N[C@@H](Cc2c[nH]c3ccccc23)C(=O)N1)C(N)=O [#7] (H-GCKGDWCA-NH2; disulfide 2-7) | – | quite specific | –
10 | EEPCATGPCCRRCKFKRAGKVCRVAKGDWNNDYCTGK- S-C-D-C-P-R-N-P-W-N-G (EEPCATGPCCRRCKFKRAGKVCRVAKGDWNNDYCTGKSCDCPRNPWNG) [Analog #2] | – | – | inhibition of vitronectrin binding to vitronectrin receptor, in words (vitronectrin receptor [3]): inability to inhibit the binding of vitronectrin to the vitronectrin receptor
